Measured values as given in ChEMBL document CHEMBL4342426, “Structure-activity relationship of 4-azaindole-2-piperidine derivatives as agents against Trypanosoma cruzi” (Bioorg Med Chem Lett, 2020).

Legend:
[1] = cells; details: Homo sapiens, MRC-5 SV2, 72 h
Description: (§1) Cytotoxicity against human MRC5 SV2 cells assessed as reduction in cell viability incubated for 3 days by fluorimetry

[2] = test system: Macrophage; assay: cells; details: Mus musculus, 72 h
Description: (§2) Cytotoxicity against mouse peritoneal Macrophage cells assessed as reduction in cell viability incubated for 3 days by fluorimetry

[3] = in vitro; details: human, MRC5 SV2 cells
Description: as §1

[4] = in vitro; details: human, MRC5 SV2 cells; remark: listed apart in the source
Description: Selectivity index, ratio of IC50 for human MRC5 SV2 cells to IC50 for Trypanosoma cruzi Tulahuen CL2 amastigotes infected in human MRC5 SV2 cells

[5] = in vitro; details: mouse, peritoneal macrophages
Description: as §2

[6] = in vitro; details: human, MRC5 SV2 cells; remark: listed apart in the source
Description: Selectivity index, ratio of IC50 for human MRC5 SV2 cells to IC50 for Trypanosoma brucei rhodesiense STIB900 trypomastigotes

[7] = test system: Trypanosoma cruzi; assay: microbe, parasite or virus in culture; details: Tulahuen CL2, MRC-5 SV2, 168 h
Description: Antitrypanosomal activity against Trypanosoma cruzi Tulahuen CL2 amastigotes infected in human MRC5 SV2 cells incubated for 7 days by chlorophenol red beta-D-galactopyranoside substrate based spectrophotometric assay

[8] = test system: Trypanosoma brucei; assay: microbe, parasite or virus in culture; details: Squib 427, 72 h
Description: Antitrypanosomal activity against Trypanosoma brucei Squib 427 assessed as reduction in parasite growth incubated for 72 hrs by resazurin dye based fluorimetric analysis

[9] = test system: Trypanosoma brucei rhodesiense; assay: microbe, parasite or virus in culture; details: STIB900, 72 h
Description: Antiprotozoal activity against Trypanosoma brucei rhodesiense STIB900 trypomastigotes incubated for 72 hrs by resazurin dye based fluorimetric analysis

[10] = test system: Leishmania infantum; assay: microbe, parasite or virus in culture; details: for IC50: MHOM/MA(BE)/67/ITMAP263, 120 h; for IC90: MHOM/MA(BE)/67/ITMAP263, in Mus musculus, 120 h
Description: Antileishmanial activity against amastigote stage of Leishmania infantum MHOM/MA(BE)/67/ITMAP263 infected in mouse peritoneal macrophage assessed as parasite growth inhibition incubated for 5 days by Giemsa staining based assay

[11] = in vitro; details: human, liver microsomes
Description: Metabolic stability in human liver microsomes assessed as intrinsic clearance at 0.5 uM incubated for 30 mins by LC-MS/MS analysis

[12] = in vitro; details: mouse, liver microsomes
Description: Metabolic stability in mouse liver microsomes assessed as intrinsic clearance at 0.5 uM incubated for 30 mins by LC-MS/MS analysis

[13] = physchem; details: buffer, pH 7.4
Description: Lipophilicity, logD of compound at pH 7.4 by HPLC analysis

[14] = in vitro; details: PAMPA
Description: Effective permeability of compound by PAMPA assay

[15] = in vitro; details: mouse, liver microsomes; remark: listed apart in the source
Description: Metabolic stability in mouse liver microsomes assessed as fraction unbound at 0.5 uM incubated for 30 mins by LC-MS/MS analysis

| SMILES | IC90 at 72 h [3] | IC90 at 72 h [5] | IC50 [8] | IC90 [8] | IC50 [9] | IC90 [9] | IC50 [10] | IC90 [10] | CLint scaled at 0.5 h, 0.5 µM [11] | microsomal CLint at 0.5 h, 0.5 µM [11] | CLint scaled at 0.5 h, 0.5 µM [12] | microsomal CLint at 0.5 h, 0.5 µM [12] | logD [13] | Papp [14] | fraction unbound at 0.5 h, 0.5 µM [15] | IC50 [1] | IC50 [2] | selectivity ratio [4] | IC50 [7] | IC90 [7] | further results |
| --- | --- | --- | --- | --- | --- | --- | --- | --- | --- | --- | --- | --- | --- | --- | --- | --- | --- | --- | --- | --- | --- |
| CC(C)c1cc(C(=O)N2CCCC(O)(c3cc4ncccc4n3S(=O)(=O)c3ccccc3)C2)on1 (stereo not given) | 64 µM | 64 µM | 51.1 µM | 64 µM | 35.4 µM | 64 µM | 64 µM | 64 µM | – | – | – | – | – | – | – | 64 µM | 64 µM | 1.26 | 51.3 µM | 64 µM | selectivity ratio [6]: 1.8 |
| CCN(CCC(=O)Nc1cccnc1)C(=O)c1ccc(F)cc1 | 64 µM | 64 µM | 64 µM | 64 µM | 64 µM | 64 µM | 64 µM | 64 µM | < 43.3 mL/min/kg | < 23 µL/min/mg | 140 mL/min/kg | 25.1 µL/min/mg | 2.03 | 5.23 ×10⁻⁶ cm/s | 0.571 | 64 µM | 64 µM | – | 64 µM | 64 µM | – |
| O=C(c1ccccc1)N1CCCC(c2cc3ncccc3[nH]2)C1 (stereo not given) | 64 µM | 64 µM | 64 µM | 64 µM | 38.3 to 64 µM | 64 µM | 64 µM | 64 µM | 38.8 mL/min/kg | 24.7 µL/min/mg | 2360 mL/min/kg | 508 µL/min/mg | 2.68 | 2.88 ×10⁻⁶ cm/s | – | 64 µM | 64 µM | 7.13 to 7.5 | 8.5 to 9.02 µM | 31.1 to 45.3 µM | selectivity ratio [6]: 1.7 |
| O=C(c1cccc(C(F)(F)F)n1)N1CCCC(c2cc3ncccc3[nH]2)C1 (stereo not given) | 64 µM | 64 µM | 64 µM | 64 µM | 64 µM | 64 µM | 64 µM | 64 µM | 38.3 to 210 mL/min/kg | 23 to 114 µL/min/mg | 315 to 1070 mL/min/kg | 64 to 196 µL/min/mg | 2.94 to 3.02 | 0.584 to 2.12 ×10⁻⁶ cm/s | 0.584 to 0.649 | 64 µM | 64 µM | 2.42 to 4.35 | 14.8 to 26.1 µM | 59.3 to 60.5 µM | – |
| O=C(c1cc(C2CC2)no1)N1CCOC(c2cc3ncccc3[nH]2)C1 (stereo not given) | 64 µM | 64 µM | 64 µM | 64 µM | 64 µM | 64 µM | 64 µM | 64 µM | < 27.8 mL/min/kg | < 23 µL/min/mg | 279 mL/min/kg | 78.3 µL/min/mg | 2.4 | 3.18 ×10⁻⁶ cm/s | 0.896 | 64 µM | 64 µM | 1.85 | 34.6 µM | 63.5 µM | – |
| CCN(C(=O)CCc1nc2ncccc2[nH]1)c1ccccc1 | 64 µM | 64 µM | 64 µM | 64 µM | 64 µM | 64 µM | 64 µM | 64 µM | 49.3 mL/min/kg | 35.1 µL/min/mg | 426 mL/min/kg | 102 µL/min/mg | 2.23 | 9.64 ×10⁻⁶ cm/s | 0.767 | 64 µM | 64 µM | 1.3 | 49.1 µM | 64 µM | – |
| CN(CCc1cc2ncccc2[nH]1)C(=O)c1ccccc1 | 64 µM | 64 µM | 64 µM | 64 µM | 64 µM | 64 µM | 64 µM | 64 µM | < 30.2 mL/min/kg | < 23 µL/min/mg | 1470 mL/min/kg | 382 µL/min/mg | 1.88 | 2.85 ×10⁻⁶ cm/s | 0.83 | 64 µM | 64 µM | 1.75 | 36.2 µM | 64 µM | – |
| CCN(CCc1nc2ncc(Cl)cc2[nH]1)C(=O)c1ccc(F)cc1 | 64 µM | 64 µM | 64 µM | 64 µM | 30.3 µM | 57.6 µM | 64 µM | 64 µM | < 31.7 mL/min/kg | < 23 µL/min/mg | 439 mL/min/kg | 108 µL/min/mg | 2.79 | 11.4 ×10⁻⁶ cm/s | – | 64 µM | 64 µM | – | 64 µM | 64 µM | selectivity ratio [6]: 2.1 |
| COc1ccc(Cl)cc1C(=O)N1CCCC(c2cc3ncccc3[nH]2)C1 (stereo not given) | 32 µM | 32 µM | 32 µM | 32 µM | 17.8 µM | 32 µM | 28.5 µM | 32 µM | 207 mL/min/kg | – | 10300 mL/min/kg | – | – | – | – | 32 µM | 32 µM | 8.54 | 3.75 µM | 7.59 µM | selectivity ratio [6]: 1.79 |

The remaining molecules from weak to strong by IC50 [8], led by results:

| IC90 at 72 h [3] | IC90 at 72 h [5] | IC50 [8] | IC90 [8] | IC50 [9] | IC90 [9] | IC50 [10] | IC90 [10] | CLint scaled at 0.5 h, 0.5 µM [11] | microsomal CLint at 0.5 h, 0.5 µM [11] | CLint scaled at 0.5 h, 0.5 µM [12] | microsomal CLint at 0.5 h, 0.5 µM [12] | logD [13] | Papp [14] | fraction unbound at 0.5 h, 0.5 µM [15] | SMILES | IC50 [1] | IC50 [2] | selectivity ratio [4] | IC50 [7] | IC90 [7] | further results |
| --- | --- | --- | --- | --- | --- | --- | --- | --- | --- | --- | --- | --- | --- | --- | --- | --- | --- | --- | --- | --- | --- |
| 64 µM | 64 µM | 64 µM | 64 µM | 64 µM | 64 µM | 64 µM | 64 µM | 95.8 mL/min/kg | 58.2 µL/min/mg | 5410 mL/min/kg | 1110 µL/min/mg | 3.12 | 2.86 ×10⁻⁶ cm/s | 0.656 | O=C(c1cc(C(F)(F)F)no1)N1CCC(c2cc3ncccc3[nH]2)C1 (stereo not given) | 64 µM | 64 µM | 7.25 | 8.3 µM | 64 µM | – |
| 64 µM | 64 µM | 64 µM | 64 µM | 64 µM | 64 µM | 64 µM | 64 µM | < 33.3 mL/min/kg | < 23 µL/min/mg | 4520 mL/min/kg | 1040 µL/min/mg | 2.68 | 0.94 ×10⁻⁶ cm/s | 0.738 | O=C(c1ccccc1)N1CCC(c2cc3ncccc3[nH]2)CC1 | 64 µM | 64 µM | 2.86 | 22.4 µM | 56.1 µM | – |
| 64 µM | 64 µM | 64 µM | 64 µM | 64 µM | 64 µM | 64 µM | 64 µM | < 37.8 mL/min/kg | < 23 µL/min/mg | < 88 mL/min/kg | < 23 µL/min/mg | 2.3 | 0.45 ×10⁻⁶ cm/s | 0.661 to 0.839 | CC(C)(O)c1cc(C(=O)N2CCCC(c3cc4ncccc4[nH]3)C2)on1 (stereo not given) | 64 µM | 64 µM | 1.9 | 33.6 µM | 64 µM | – |
| 64 µM | 64 µM | 64 µM | 64 µM | 64 µM | 64 µM | 64 µM | 64 µM | 57.8 mL/min/kg | 36.9 µL/min/mg | 601 mL/min/kg | 129 µL/min/mg | 2.44 | 6.36 ×10⁻⁶ cm/s | 0.688 | COc1cc(C(=O)N2CCCC(c3cc4ncccc4[nH]3)C2)on1 (stereo not given) | 64 µM | 64 µM | 7.9 | 8.1 µM | 15.2 µM | – |
| 64 µM | 64 µM | 64 µM | 64 µM | 64 µM | 64 µM | 64 µM | 64 µM | 118 mL/min/kg | 89.8 µL/min/mg | 529 mL/min/kg | 137 µL/min/mg | 2.89 | 4.3 ×10⁻⁶ cm/s | 0.825 | O=C(c1cc(C(F)(F)F)no1)N1CCOC(c2cc3ncccc3[nH]2)C1 (stereo not given) | 64 µM | 64 µM | 1.8 | 35.7 µM | 64 µM | – |
| 64 µM | 64 µM | 64 µM | 64 µM | 56 µM | 64 µM | 64 µM | 64 µM | 210 mL/min/kg | 126 µL/min/mg | – | – | 3.65 | 15.3 ×10⁻⁶ cm/s | 0.647 | O=C(Cc1ccccc1)N1CCN(c2nc3ccccc3s2)CC1 | 64 µM | 64 µM | 1.59 | 40 µM | 62.9 µM | – |
| 32 µM | 32 µM | 32 µM | 32 µM | 5.88 µM | 23.4 µM | 24.7 µM | 32 µM | – | – | – | – | – | – | – | COc1cccc2[nH]c(C(=O)N3CCCC(c4cc5ncccc5[nH]4)C3)cc12 (stereo not given) | 32 µM | 32 µM | 29.4 | 1.09 µM | 5.34 µM | selectivity ratio [6]: 5.44 |
